Assay results reported in publication PMC11872507, “Lasso peptides sviceucin and siamycin I exhibit anti-virulence activity and restore vancomycin effectiveness in vancomycin-resistant pathogens” (iScience, 2025).
In brackets after ≈: the same amount, converted by molar mass.

Legend:
E. faecalis V583 ΔvanB = experiment: microbe, parasite or virus in culture; type: cell-based, Enterococcus faecalis; conditions: Enterococcus faecalis, read-out: Vancomycin MIC
E. faecium 1 230 933 = experiment: microbe, parasite or virus in culture; type: cell-based, Enterococcus faecium; conditions: Enterococcus faecium, 1230933, read-out: Vancomycin MIC
SiaC = experiment: Vancomycin MIC, spontaneous mutants; type: cell-based; conditions: Enterococcus faecalis; vancomycin alone; CcpA A148V
Protocol: (§1) The MIC of vancomycin was determined by the microdilution method described in the guidelines of the European Committee on Antimicrobial Susceptibility Testing (EUCAST 2024, v14.0 Breakpoint Tables).[58] For enterococci, GM17 medium was used instead of CAMH medium since enterococci cannot degrade starch, the main carbohydrate of MH medium. 2-fold serial dilutions of the tested antibiotic were performed to obtain concentrations ranging from 0.5 to 512 μg/mL. LP were then added to the wells at the desired concentration. The medium was inoculated with a final inoculum of 5 × 10^5 CFU/mL. The MIC is the lowest concentration that prevents visible in vitro growth.
(§2) Resistant clones to sviceucin were selected by plating bacteria on GM17 agar medium supplemented with vancomycin at 32 μg/mL and sviceucin at 10 μM. Growth and MIC of vancomycin and sviceucin of the resistant clones were tested. The selection for siamycin I resistance was done by performing serial passages of bacteria in GM17 medium supplemented with vancomycin 10 μg/mL and increasing concentrations of siamycin I from 0.5 to 5 μM. Single nucleotide polymorphism (SNPs) analysis was performed on the sequenced gDNA of each selected resistant mutant.

SiaD = experiment: Vancomycin MIC, spontaneous mutants; type: cell-based; conditions: Enterococcus faecalis; vancomycin alone; CcpA A89P
Protocol: as §1, §2

Svic3 = experiment: Vancomycin MIC, spontaneous mutants; type: cell-based; conditions: Enterococcus faecalis; vancomycin alone; nonsense mutation in atpF
Protocol: as §1, §2

Svic2 = experiment: Vancomycin MIC, spontaneous mutants; type: cell-based; conditions: Enterococcus faecalis; vancomycin alone; nonsense mutation in atpA
Protocol: as §1, §2

SiaB = experiment: Vancomycin MIC, spontaneous mutants; type: cell-based; conditions: Enterococcus faecalis; vancomycin alone; CcpA D121V
Protocol: as §1, §2

Svic4 = experiment: Vancomycin MIC, spontaneous mutants; type: cell-based; conditions: Enterococcus faecalis; vancomycin alone; atpD RBS modification
Protocol: as §1, §2

SiaE = experiment: Vancomycin MIC, spontaneous mutants; type: cell-based; conditions: Enterococcus faecalis; vancomycin alone; frameshift in ccpA
Protocol: as §1, §2

E. faecalis merz96 = experiment: microbe, parasite or virus in culture; type: cell-based, Enterococcus faecalis; conditions: Enterococcus faecalis, MERZ96, read-out: Vancomycin MIC
V583 ΔvanSB = experiment: Vancomycin MIC, microdilution; type: cell-based; conditions: Enterococcus faecalis; vancomycin alone (control)
Protocol: The MIC of vancomycin was determined by the microdilution method described in the guidelines of the European Committee on Antimicrobial Susceptibility Testing (EUCAST 2024, v14.0 Breakpoint Tables).[58] […] 2-fold serial dilutions of the tested antibiotic were performed to obtain concentrations ranging from 0.5 to 512 μg/mL. LP were then added to the wells at the desired concentration. The medium was inoculated with a final inoculum of 5 × 10^5 CFU/mL. The MIC is the lowest concentration that prevents visible in vitro growth.

Svic1 = experiment: Quantification of D-Ala-D-Lac muropeptides by LCMS; type: cell-based, Enterococcus faecalis; conditions: vancomycin alone, 2 μg/mL; means of at least two biological replicates
Protocol: (§3) Extraction of muropeptides was performed as previously described[64] with modifications. Bacteria were cultured overnight in GM17 medium supplemented with 2 μg/mL of vancomycin (Merck, USA), 10 μM of sviceucin, or 2 μM of siamycin I. Bacteria were pelleted by centrifugation for 5 min at 10000 rpm and then resuspended in 1 mL of 0.1 M Tris-HCl (pH 6.8), 0.25% SDS. Samples were boiled for 20 min in a heating block (Biolock Scientific, USA) and then centrifuged for 5 min at 10000 rpm. The pellets were washed twice with 1 mL of cold ultrapure water before sonication for 30 min (Branson 1800 Cleaner, USA). 500 μL of DNase 15 μg/mL and RNase 60 μg/mL (Sigma-Aldrich, USA) were added to each sample then incubated at 37°C for 60 min. […] Pellets were resuspended in 12,5 mM sodium phosphate buffer (pH 5.5), then muropeptides concentration was determined and standardized to an OD578 of 3. […]
(§4) LCMS analysis was performed on an ultra-high performance LC system (Ultimate 3000 RSLC, Thermo Scientific, USA) coupled to a high-resolution electrospray ionization-quadrupole-time of flight mass spectrometer (MaXis II ETD, Bruker Daltonics, USA). […] Mass data were analyzed by Data Analysis 4.4 (Bruker Daltonics, USA). For quantification, the m/z corresponding to singly- and doubly-charged species of monomer, as well as doubly- and triply-charged species of dimers of muropeptides were manually searched. […]

E. faecalis V583 = experiment: Quantification of D-Ala-D-Lac muropeptides by LCMS; type: cell-based, Enterococcus faecalis; conditions: vancomycin alone, 2 μg/mL; means of at least two biological replicates
Protocol: as §3, §4

E. faecalis HIP11704 = experiment: microbe, parasite or virus in culture; type: cell-based, Enterococcus faecalis; conditions: Enterococcus faecalis, HIP11704, read-out: Vancomycin MIC

Compound: CN[C@H](CC(C)C)C(=O)N[C@H]1C(=O)N[C@@H](CC(N)=O)C(=O)N[C@H]2C(=O)N[C@H]3C(=O)N[C@H](C(=O)N[C@H](C(=O)O)c4cc(O)cc(O)c4-c4cc3ccc4O)[C@H](O)c3ccc(c(Cl)c3)Oc3cc2cc(c3O[C@@H]2O[C@H](CO)[C@@H](O)[C@H](O)[C@H]2O[C@H]2C[C@](C)(N)[C@H](O)[C@H](C)O2)Oc2ccc(cc2Cl)[C@H]1O [Vancomycin]
- MIC (E. faecalis V583 ΔvanB): 2 µg/mL (≈ 1.38 µM)
- MIC (E. faecium 1 230 933): 512 µg/mL (≈ 353 µM)
- MIC (SiaC): 64 µg/mL (≈ 44.2 µM)
- MIC (SiaD): 64 µg/mL (≈ 44.2 µM)
- MIC (Svic3): 256 µg/mL (≈ 177 µM)
- MIC (Svic2): 256 µg/mL (≈ 177 µM)
- MIC (SiaB): 64 µg/mL (≈ 44.2 µM)
- MIC (Svic4): 256 µg/mL (≈ 177 µM)
- MIC (SiaE): 32 µg/mL
- MIC (E. faecalis merz96): 32 µg/mL (≈ 22.1 µM)
- MIC (V583 ΔvanSB): 2 µg/mL (≈ 1.38 µM)
- percentage of muropeptides D-Ala-D-Lac (Svic1): 62.0%
- percentage of muropeptides D-Ala-D-Lac (E. faecalis V583): 48.3%
- MIC (E. faecalis HIP11704): 1020 µg/mL (≈ 707 µM)
